Measured values published in patent US20230405063A1, “USE OF PROBIOTIC COMPONENT AND PHARMACEUTICAL COMPOSITION CONTAINING PROBIOTIC COMPONENT” (CHENGDU KUACHANGAOPU MEDICAL TECHNOLOGY CO., LTD., priority 2020, published 2023).

Tests used:
Type in all cases: in vivo
[1] = test system: gastric tumor cells (BGC823); experiment: Tumor inhibition in BGC823 tumor-bearing nude mice (Example 5, Table 8); details: intratumoral injection once, 150 μl/mouse, 7th day
Excerpt: The method for determining the effect of combined drug administration in animal experiments was Burgi method (Burgi Y. Pharmacology; Drug actions and reactions. Cancerres. 1978, 38(2), 284-285). The Burgi method was modified by Zhengjun JIN (Zhengjun JIN, Equal probability and curve and “Q50”, Journal of the Second Shanghai Medical College; 1981, 1, 75-86) with q calculated as: q=EA+B/(EA+EB−EA×EB). In the following examples of the present invention, the combinational pharmaceutical efficacies (drug efficacies) of drug A and drug B co-administration was determined by ratio q of actual pharmaceutical efficacy (drug efficacy)/theoretical pharmaceutical efficacy (drug efficacy) according to Zhengjun JIN method, as follows.
Nude mice were used as experimental subjects, and gastric tumor cells (BGC823) were used as modeling cells, 1×10^5 cells/mouse were injected into the right axilla subcutaneously for transplantation tumor modeling, and the average tumor volume of successfully modeled nude mice was 164.4 mm^3. The model animals were randomly divided into 14 groups, and the drugs according to the pharmacological constitutions in Table 8 were administered via intratumoral injection. Each group was dosed once with an injection volume of 150 μl/mouse; wherein the pharmaceutical compositions of groups 5, 11 were semi-fluid, the pharmaceutical compositions of other groups are liquid. On the 7th day after drug administration, the animals were euthanized, and after dissection, the tumor tissue was taken out to determine the tumor weight, and the tumor inhibition rate (r) was calculated relative to the negative control group. Further, the actual efficacy/expected efficacy ratio q of a drug could also be calculated according to the therapeutic effect (tumor inhibition rate).

[2] = test system: outer lateral muscle mass of the right leg; experiment: Local effect on normal muscle tissue, area of abnormal regions, nude mice
Description: The animals were euthanized on the 7th day after drug administration, and the specimens of the outer lateral muscle mass of the right leg from the nude mice were taken out by autopsy, and the areas of abnormal regions different from normal muscles, such as of necrosis and nodules, were measured after sectioning and washing.
Each group was dosed once with an injection volume of 100 μl/mouse by administering to the outer lateral muscle mass of the right leg. On the 7th day after drug administration, the animals were euthanized, and the specimens of the outer lateral muscle mass of the right leg were taken out after dissection to perform a general pathological analysis. The sections were measured for the area of abnormal regions that distinguished from normal muscle, such as necrosis and nodules.

[3] = test system: human pancreatic cancer cells (PANC-1); experiment: Tumor inhibition in PANC-1 tumor-bearing nude mice, administration volume study (Example 4, Table 6); details: intratumoral once
Description: Nude mice were used as experimental subjects, and human pancreatic cancer cells (PANC-1) were used as modeling cells, 1×10^5 cells/mouse were injected into the right axilla subcutaneously for transplantation tumor modeling, and the average tumor volume of successfully modeled nude mice was 213.1 mm^3. The model animals were randomly divided into 16 groups, and the drugs were administered intratumorally according to the drug components and administration volumes in Table 6, and each group was administered once. The drugs in groups 1-12 were prepared according to the method of Example 1, wherein the inactivated probiotics were heat-inactivated Saccharomyces boulardii, the probiotic water-insoluble component particles were β-glucan particles, the probiotic water-soluble component was disrupted Saccharomyces boulardii supernatant component, and the mixture of the probiotic water-insoluble component particles and water-soluble component (abbreviated as probiotic component mixture) was disrupted Saccharomyces boulardii, preparation method used was the same as that of Example 3. On the 7th day after drug administration, the animals were euthanized, and the tumor tissues were taken out after dissection to determine the tumor weight, and the tumor inhibition rate (r) was calculated relative to the negative control group.

[4] = injection volume 20 ul, administration volume/tumor volume 0.09, 7th day
[5] = injection volume 50 ul, administration volume/tumor volume 0.23, 7th day
[6] = injection volume 100 ul, administration volume/tumor volume 0.47, 7th day

Structure (SMILES) | Tumor inhibition rate r [1] [%] | Tumor weight (x ± s) [1] [g] | Area of abnormal regions (necrosis, nodules) ([2]; dosed once into muscle 100 μl/mouse, 7th day (b197 experiment)) [mm^2] | Areas of the abnormal regions (necrosis, nodules) ([2]; injection into muscle 100 ul/mouse, 7th day (b168 experiment)) [mm^2] | Tumor inhibition rate r [3, 4] [%] | Tumor weight (x ± s) [3, 4] [g] | Tumor inhibition rate r [3, 5] [%] | Tumor weight (x ± s) [3, 5] [g] | Tumor inhibition rate r [3, 6] [%] | Tumor weight (x ± s) [3, 6] [g]
O=c1[nH]cc(F)c(=O)[nH]1 [1% 5-fluorouracil, 5-fluorouracil] | 41.4 | 0.132 ± 0.069 | – | – | – | – | – | – | – | –
CCO [75% ethanol, ethanol] | – | – | 32.24±13.71 | 35.14±15.92 | 6.2 | 0.257 ± 0.110 | 20.3 | 0.218 ± 0.115 | 31.7 | 0.187 ± 0.064
